From paper PMC11042244 (RSC Medicinal Chemistry, 2024)

Legend:
[1] = test system: ROS produced by PMA-stimulated murine bone marrow leukocytes; assay: Antiradical activity assay: L-012-enhanced chemiluminescence of ROS production; assay type: cell-based, murine (BALB/c mice)
Experimental: (§1) All animal use was conducted in accordance with a protocol approved by the Institutional Animal Care and Use Committee (IACUC) at Montana State University (protocol approval number 2022-45-IA). Bone marrow leukocytes were flushed from tibias and femurs of BALB/c mice (2-month old; 25 g body weight) or CD-1 female mice (2.5-month old; 30 g body weight) with HBSS, filtered through a 70 μm nylon cell strainer (BD Biosciences, Franklin Lakes, NJ) to remove cell clumps and bone particles.
To evaluate antiradical activity, murine bone marrow leukocytes from BALB/c mice were resuspended at 10^6 cells per ml in HBSS containing Ca^2+ and Mg^2+ (HBSS^+) and supplemented with 40 μM L-012 (Wako Chemicals, Richmond, VA),[51] since L-012-enhanced chemiluminescence represents a sensitive and reliable method for detecting ROS.[52] The cells (100 μl) were then aliquoted into wells of 96-well flat-bottom white microtiter plates containing test compounds diluted in 100 μl of HBSS^+ (final DMSO concentration of 1%). The cells were activated by adding 200 nM PMA (Sigma Chemical Co., St. Louis, MO), and luminescence was monitored for 60 min (2 min intervals) at 37 °C using a Fluoroskan Ascent FL microtiter plate reader (Thermo Electron, Waltham, MA). The compound concentration that inhibited ROS production by 50% of the PMA-stimulated response was determined by graphing the percentage inhibition of the 60 min integrated luminescence versus the logarithm of concentration of test compound. Each curve was determined using five to seven compound concentrations. Curve fitting and calculation of median effective concentration values (IC50) were performed by nonlinear regression analysis of the dose–response curves generated using Prism 10 (GraphPad Software, Inc., San Diego, CA, USA).

[2] = test system: murine bone marrow leukocytes; assay: Cytotoxicity assay (CellTiter-Glo luminescent cell viability); assay type: cell-based, murine (CD-1 mice); details: for Cyto-toxicity IC50: 90 min incubation, mean ± SD of three experiments, N.A. = no cytotoxicity at the highest concentration tested (25 μM); for IC50: Mus musculus, Leukocyte, read-out: Cyto-toxicity IC50
Experimental: as §1
The cytotoxicity of compounds for murine bone marrow leukocytes was analyzed using a CellTiter-Glo Luminescent Cell Viability Assay kit (Promega), according to the manufacturer's protocol. Briefly, bone marrow leukocytes from CD-1 mice were incubated at a density of 10^4 cells per well with different concentrations of compounds (the final concentration of DMSO was 1%) for 90 min at 37 °C and 5% CO2. Following treatment, the substrate was added to the cells, and the samples were analyzed with a FlexStation 3 microplate reader (Molecular Devices, San Jose, CA), USA.

[3] = molecular target: T1, HNE (human neutrophil elastase) (Homo sapiens, UniProt P08246); assay: HNE inhibition assay (fluorogenic substrate, enzymatic); assay type: biochemical; details: mean ± SD of three independent experiments, N.A. = no inhibitory activity at the highest concentration tested (50 μM)
T1 construct: purchased Calbiochem
T1 sequence (P08246 30-247 limits assumed): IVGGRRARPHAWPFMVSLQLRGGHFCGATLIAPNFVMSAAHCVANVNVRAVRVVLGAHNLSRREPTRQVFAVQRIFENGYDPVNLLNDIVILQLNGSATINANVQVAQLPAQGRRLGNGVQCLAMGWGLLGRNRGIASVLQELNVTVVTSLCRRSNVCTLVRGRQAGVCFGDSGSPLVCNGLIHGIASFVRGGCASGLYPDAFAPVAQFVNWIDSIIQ
Experimental: All compounds were dissolved in 100% DMSO at 5 mM stock concentrations and then subsequently diluted in 100% DMSO at various concentrations appropriate for use in the dose–response assays. […] The HNE inhibition assay was performed in black flat-bottom 96-well microtiter plates. Briefly, a buffer solution containing 200 mM Tris-HCl, pH 7.5, 0.01% bovine serum albumin, and 0.05% Tween-20 and 20 mU mL^−1 of HNE (Calbiochem) was added to wells containing different concentrations of each compound. The reaction was initiated by addition of 25 μM elastase substrate (N-methylsuccinyl-Ala-Ala-Pro-Val-7-amino-4-methylcoumarin, Calbiochem) in a final reaction volume of 100 μL per well. Kinetic measurements were obtained every 30 s for 10 min at 25 °C using a Fluoroskan Ascent FL fluorescence microplate reader (Thermo Electron, MA) with excitation and emission wavelengths of 355 and 460 nm, respectively. For all compounds tested, the concentration of inhibitor that caused 50% inhibition of the enzymatic reaction (IC50) was calculated by plotting % inhibition versus logarithm of inhibitor concentration (at least six points).[50]

[4] = inhibition of ROS production, 200 nM PMA, 60 min integrated luminescence, mean ± SD of three experiments, N.A. = no inhibitory activity at the highest concentration tested (50 μM)

Row | Structure (SMILES) | IC50 ([1]; Mus musculus, Leukocyte, 1 h) | Cyto-toxicity IC50 [2] | IC50 [2] | Antiradical activity IC50 [1, 4] | IC50 [3] | IC50 [1, 4] | HNE inhibition IC50 [3]
1 | CCOC(=O)c1ccc(-n2[se]c3ccccc3c2=O)cc1 [3b] | 1800 ± 200 nM | no cytotoxicity | – | – | – | – | –
2 | O=C(NC1CC1)c1ccc(-n2[se]c3ccccc3c2=O)cc1 [3c, N-Cyclopropyl-4-(3-oxobenzo[d][1,2]selenazol-2(3H)-yl)benzamide] | 9700 ± 1400 nM | – | 8000 ± 1900 nM | – | – | – | –
3 | Cc1cccc(NC(=O)c2ccc(-n3[se]c4ccccc4c3=O)cc2)c1 [3d, 4-(3-Oxobenzo[d][1,2]selenazol-2(3H)-yl)-N-(m-tolyl)benzamide] | – | no cytotoxicity | – | inactivity | – | – | –
4 | CC(=O)n1[se]c2ccccc2c1=O [4a, 2-Acetylbenzo[d][1,2]selenazol-3(2H)-one] | 420 ± 60 nM | – | 10800 ± 2400 nM | – | 7700 ± 2300 nM | – | –
5 | CCC(=O)n1[se]c2ccccc2c1=O [4b, 2-Propionylbenzo[d][1,2]selenazol-3(2H)-one] | 180 ± 50 nM | – | 8500 ± 1800 nM | – | 2600 ± 200 nM | – | –
6 | CCCC(=O)n1[se]c2ccccc2c1=O [4c, 2-Butyrylbenzo[d][1,2]selenazol-3(2H)-one] | 330 ± 80 nM | – | 4900 ± 600 nM | – | 2400 ± 400 nM | – | –
7 | CC(C)C(=O)n1[se]c2ccccc2c1=O [4d, 2-Isobutyrylbenzo[d][1,2]selenazol-3(2H)-one] | 600 ± 200 nM | – | 9600 ± 2200 nM | – | 1200 ± 100 nM | – | –
8 | CC(C)(C)C(=O)n1[se]c2ccccc2c1=O [4e, 2-Pivaloylbenzo[d][1,2]selenazol-3(2H)-one] | 2600 ± 400 nM | – | 13600 ± 3100 nM | – | 1800 ± 100 nM | – | –
9 | CCCCC(=O)n1[se]c2ccccc2c1=O [4f, 2-pentanoylbenzo[d][1,2]selenazol-3(2H)-one] | < 1000 nM | – | 4200 ± 900 nM | – | 900 ± 200 nM | 700 ± 200 nM | –
10 | CCCCCC(=O)n1[se]c2ccccc2c1=O [4g, 2-Hexanoylbenzo[d][1,2]selenazol-3(2H)-one] | – | no cytotoxicity | – | inactivity | 3000 ± 400 nM | – | –
11 | CCOC(=O)n1[se]c2ccccc2c1=O [4h, Ethyl 3-oxobenzo[d][1,2]selenazole-2(3H)-carboxylate] | 2500 ± 400 nM | – | 15200 ± 3200 nM | – | – | – | completely inactive
12 | CCOC(=O)CC(=O)n1[se]c2ccccc2c1=O [4i, Ethyl 3-oxo-3-(3-oxobenzo[d][1,2]selenazol-2(3H)-yl)propanoate] | 1000 ± 300 nM | – | 8100 ± 1700 nM | – | – | – | –
13 | O=C(C1CC1)n1[se]c2ccccc2c1=O [4j, 2-(Cyclopropanecarbonyl)benzo[d][1,2]selenazol-3(2H)-one] | – | – | 10400 ± 2400 nM | – | 1400 ± 100 nM | – | –
14 | O=C(C1CCCC1)n1[se]c2ccccc2c1=O [4k, 2-(Cyclopentanecarbonyl)benzo[d][1,2]selenazol-3(2H)-one] | 1400 ± 200 nM | – | 11800 ± 2800 nM | – | 2800 ± 200 nM | – | –
15 | O=C(C1CCCCC1)n1[se]c2ccccc2c1=O [4l, 2-(Cyclohexanecarbonyl)benzo[d][1,2]selenazol-3(2H)-one] | 1100 ± 100 nM | – | 12400 ± 3400 nM | – | 24100 ± 4800 nM | – | –
16 | O=C(c1ccccc1)n1[se]c2ccccc2c1=O [4m, 2-Benzoylbenzo[d][1,2]selenazol-3(2H)-one] | – | – | – | – | 2300 ± 400 nM | – | –
17 | Cc1cccc(C(=O)n2[se]c3ccccc3c2=O)c1 [4n, 2-(3-Methylbenzoyl)benzo[d][1,2]selenazol-3(2H)-one] | 7000 ± 1300 nM | no cytotoxicity | – | – | 10900 ± 2100 nM | – | –
18 | COc1ccc(C(=O)n2[se]c3ccccc3c2=O)cc1 [4o, 2-(4-Methoxybenzoyl)benzo[d][1,2]selenazol-3(2H)-one] | – | – | – | – | 8700 ± 1200 nM | – | –
19 | O=C(c1ccsc1)n1[se]c2ccccc2c1=O [4p, 2-(Thiophene-3-carbonyl)benzo[d][1,2]selenazol-3(2H)-one] | 14300 ± 2700 nM | no cytotoxicity | – | – | – | – | –
20 | O=c1c2ccccc2[se]n1-c1ccccc1 [Ebselen (3a), 2-phenyl-1,2-benzoselenazol-3(2H)-one, reference compound] | – | – | 9500 ± 2500 nM | – | – | – | completely inactive
21 | CC(C)(C)C(=O)Oc1ccc(S(=O)(=O)Nc2ccccc2C(=O)NCC(=O)O)cc1 [Sivelestat, reference compound] | – | no cytotoxicity | – | – | – | – | –
22 | CC(C)(C)C(=O)Oc1ccc(S(=O)(=O)n2[se]c3ccccc3c2=O)cc1 [compound 6, 4-[(3-Oxobenzo[d][1,2]selenazol-2(3H)-yl)sulfonyl]phenyl pivalate] | 6400 ± 400 nM | no cytotoxicity | – | – | 2700 ± 500 nM | – | –
23 | O=C(NC1CC1)n1[se]c2ccccc2c1=O [compound 8, N-Cyclopropyl-3-oxobenzo[d][1,2]selenazole-2(3H)-carboxamide] | 900 ± 300 nM | – | 5900 ± 1600 nM | – | – | – | completely inactive
